The assay addresses Bcl-2-like protein 1 (Homo sapiens) (UniProt Q07817). Nature of the assay: Bcl-XL binding to Bim peptide disruption – biochemical, multiplexed, bead flow cytometry, human Bcl-XL, dose response (AID 1322). On inhibition: test concentration not given here. The following applies: Bead-based flow cytometry, MCF; for inhibition: hits give high values. (Flow cytometry measures light scatter and fluorescence of single cells or particles in a stream.)

Activity calls are given as the source filed them. How the calls were made is not given here.

Bcl-2-like protein 1 (Homo sapiens), sequence (Q07817 whole entry, looked up): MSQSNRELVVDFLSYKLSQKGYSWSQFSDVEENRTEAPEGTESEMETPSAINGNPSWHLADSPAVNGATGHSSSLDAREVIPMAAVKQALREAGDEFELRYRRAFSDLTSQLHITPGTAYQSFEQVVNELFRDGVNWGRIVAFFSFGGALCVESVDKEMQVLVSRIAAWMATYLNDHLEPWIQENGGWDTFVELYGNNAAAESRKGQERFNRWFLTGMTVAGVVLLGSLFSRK

As to `O=C(Cc1ccccc1)N/N=C/c1cccn1-c1ccc([N+](=O)[O-])cc1`, the outcome was inactive.

Regarding `Cc1cc(NC(=O)CSc2nnc(-c3cccnc3)n2Cc2ccccc2)no1`, the inhibition result is “inactive”.

`CN(C)C(Cc1ccccc1)C(=O)c1cccs1` (centres undefined): the outcome was inactive.

Regarding `O=C(COc1ccccc1Br)NCc1ccccn1`, the inhibition entry was “inactive”.

Turning to `CCC(=O)OCCNc1cc(Sc2nc3ccccc3s2)c2nonc2c1[N+](=O)[O-]`, the inhibition entry was “inactive”.

On to `Cc1ccc(-c2ccc(CCC(=O)O)n2NC(=O)c2cccs2)cc1`, for which the inhibition result is “inactive”.

With `COc1ccc(CC(=O)Nc2ccc(C(=O)Nc3nccs3)cc2)cc1OC`, the inhibition entry was “inactive”.

Turning to `COC(=O)c1c(NC(=O)COc2ncnc3ccccc23)sc(C)c1C`, the inhibition result was “inactive”.

For `FC(F)(F)c1ccc2c(c1)C1C=CCC1C(c1ccncc1)N2` (centres undefined), the result was inactive.

As to `CCSc1nnc(NC(=O)c2c(-c3ccccc3Cl)noc2C)s1`, the inhibition entry was “inactive”.

With `COc1cc(C2Nc3cccc4cccc(c34)N2)ccc1OC(C)=O`, the inhibition entry was “inactive”.

For the molecule `COc1ccc(NC(=O)Cc2c(F)cccc2Cl)c(OC)c1`, the inhibition entry was “inactive”.

For the molecule `CN=c1scc(-c2cccs2)n1/N=C/c1ccc(O)c(O)c1O`, the inhibition entry is “inactive”.

As to `CC(=O)N1CCN(C(=O)c2ccc(-n3c(C)ccc3C)cc2)CC1`, the inhibition entry is “inactive”.

Consider `CN=C(NC1CCCCC1)c1ccc(Cl)cc1`, for which the result was inactive.

With `COc1ccc(OC)c(NC(=O)COC(=O)c2cc3c(s2)CCC3)c1`, the inhibition entry was “inactive”.

With `Nc1ccc(-c2cn3cccnc3n2)cc1`, the result was inactive.

On to `O=C(O)/C=C/C(=O)NNC(=O)c1ccc(Br)cc1`, for which the result was inactive.

For the molecule `COc1ccccc1-n1c(-c2cc(-c3ccc(F)cc3)n[nH]2)n[nH]c1=S`, the inhibition result was “inactive”.

In the case of `COc1ccc(COC(=O)NNC(=O)c2ccccc2Cl)cc1`, the inhibition entry is “inactive”.

Turning to `COC(=O)CSc1nccc(-c2cccs2)n1`, the outcome was inactive.

Consider `CC1=NN(c2ccc(C)cc2)C(=O)/C1=C\c1ccc(Br)s1`, for which the inhibition entry was “inactive”.

`CNc1ccc(Br)cc(C(=O)/C=C/c2ccc(OC)cc2)c1=O`: the inhibition entry is “inactive”.

As for `CCOC(=O)C1(CC/C(C)=N\NC(N)=O)CC(C)(C)OC1=O` (centres undefined), the inhibition entry was “inactive”.

As for `Cc1ccc(-c2cc(C(=O)Nc3ccccc3C)c3ccccc3n2)o1`, the inhibition result was “inactive”.

In the case of `Cc1ccc(-n2c(CSc3nc(C)cc(C)n3)nnc2SCC(=O)NCc2ccco2)cc1`, the inhibition entry was “inactive”.

As to `CCCCC(C(=O)OCC)C(N)Cc1ccc(F)cc1` (centres undefined), the outcome was inactive.

`COc1cc(N=c2ssnc2Cl)cc(OC)c1`: the inhibition result was “inactive”.

Consider `O=C(CSc1ccc(-c2ccccc2)nn1)NCc1ccco1`, for which the inhibition result is “inactive”.

Regarding `Cc1cc(Cl)c(S(=O)(=O)NCC2CCCO2)cc1OCC(N)=O` (centres undefined), the inhibition result was “inactive”.

As for `Cc1ccc2cc(C)c(Sc3nnnn3-c3ccccc3)nc2c1`, the inhibition entry was “inactive”.

In the case of `O=C(O)c1ccc(NS(=O)(=O)c2ccc3c(c2)C(=O)c2ccccc2C3=O)cc1`, the inhibition result is “inactive”.

In the case of `CC(C)C(=O)N1CCN(c2ccc([N+](=O)[O-])cc2Cl)CC1`, the inhibition result is “inactive”.

Consider `CCOc1ccc(N2C(=O)C(Cl)=C(Nc3ccccc3O)C2=O)cc1`, for which the inhibition result is “inactive”.

Consider `CCOc1cc(/C=N/NC(=O)c2cccs2)cc([N+](=O)[O-])c1O`, for which the inhibition entry was “inactive”.

With `CCc1cccc(NC(=O)COc2ccccc2)c1`, the inhibition entry was “inactive”.

On to `CS(=O)(=O)NN1C(=O)c2ccccc2NC1c1cccs1` (centres undefined), for which the inhibition result was “inactive”.

`COc1cc(N2CCOCC2)ccc1C=C1C(=O)NC(=O)NC1=O`: the inhibition result was “inactive”.

Turning to `c1ccc2c(N3CCOCC3)nc(N3CCOCC3)nc2c1`, the inhibition result is “inactive”.

As for `O=S1(=O)N=C(N(CCO)/N=C/c2ccccc2)c2ccccc21`, the inhibition entry was “inactive”.

Consider `COc1ccc(NC(=O)c2cccs2)cc1`, for which the inhibition entry is “inactive”.

As for `CCCOc1ccc(-c2c(C(=O)N/N=C/c3ccc(OC)cc3)nnn2-c2nonc2N)cc1`, the inhibition result was “inactive”.

On to `CN(C(=O)NC1CCCCC1)c1ccccc1`, for which the inhibition entry was “inactive”.

Turning to `CC(=O)Nc1ccc2nc(CN3CCN(CC(C)C)C(CCO)C3)ccc2c1` (centres undefined), the outcome was inactive.

With `Oc1ccc(C=NCC2COc3ccccc3O2)cc1` (centres undefined), the inhibition entry was “inactive”.

As for `CCc1nnc(NC(=O)CSc2nnc(COc3ccc(C)cc3)n2-c2ccccc2)s1`, the inhibition result is “inactive”.

On to `COc1ccc(C(=O)Nc2ccc(NC(=O)c3cccs3)cc2)cc1Cl`, for which the inhibition result was “inactive”.

`Cc1nc2ccccc2n1CSc1ccccc1`: the inhibition entry was “inactive”.

As to `CCN1CCN(c2cc(C)c3cc(NC(=S)N4CCN(c5ccc(F)cc5)CC4)ccc3n2)CC1`, the inhibition entry was “inactive”.

Take `Cc1ccc(-c2cc(C(=O)Nc3nccs3)c3ccccc3n2)o1`: the inhibition result is “inactive”.

For the molecule `CN(C)c1ccc(C=C2C(=O)NC(=O)NC2=O)cc1[N+](=O)[O-]`, the inhibition entry was “inactive”.

`CN(CCc1ccccn1)C(=O)CCC1CCCN(C(=O)NC2CCCCC2)C1` (centres undefined): the outcome was inactive.

On to `CCOC(=O)C1=C(CP(=O)(c2ccccc2)c2ccccc2)NC(=O)NC1c1ccc(OC)cc1` (centres undefined), for which the inhibition entry was “inactive”.

On to `CCOc1ccc2nc(SCC(=O)N3c4ccccc4Sc4ccccc43)c(C#N)cc2c1`, for which the inhibition result was “inactive”.

As to `CCOc1ncccc1C(=O)OC(C)C(=O)Nc1ccc(CC)cc1` (centres undefined), the outcome was inactive.

As for `CC1(C)CC(=O)C(C=NCCN2CCN(CCc3ccccc3)CC2)=C(O)C1`, the inhibition entry is “inactive”.

For the molecule `CCN1CCN(c2cc(C)c3cc(NC(=S)N4CC(C)CC(C)C4)ccc3n2)CC1` (centres undefined), the inhibition entry is “inactive”.

Turning to `COc1ccccc1NC1=C(NC(C)=O)C(=O)c2ccccc2C1=O`, the inhibition entry was “inactive”.

For `Nc1ccc(N2CCN(CCCCN3C(=O)C4CCCN4C3=O)CC2)cc1` (centres undefined), the inhibition result was “inactive”.

As for `CCOc1ccccc1NC(=O)CSc1nnc2ccc(-c3cccnc3)nn12`, the inhibition result is “inactive”.

On to `CCOC(=O)N1CCC(c2cc(=O)n(-c3ccccc3)[nH]2)CC1`, for which the result was inactive.

Consider `O=C(O)c1ccc(NC2=C/C(=N/S(=O)(=O)c3ccccc3)c3ccccc3C2=O)cc1`, for which the inhibition entry was “inactive”.

With `O=C(CC1NCCNC1=O)Nc1cccc([N+](=O)[O-])c1` (centres undefined), the outcome was inactive.

For the molecule `COc1ccccc1Oc1ccc2c(c1)C(=O)N(c1ccccc1)C2=O`, the inhibition entry is “inactive”.

For the molecule `CN=c1scc(C)n1/N=C/c1ccc(O)c(O)c1O`, the inhibition result was “inactive”.

On to `COCCNC(=S)Nc1cc(OC)c(OC)cc1C#N`, for which the inhibition result is “inactive”.

Take `Cc1ccc(NC(=O)CC2S/C(=N/N=C/c3c[nH]c4ccccc34)NC2=O)cc1` (centres undefined): the inhibition entry was “inactive”.

For the molecule `Cc1ccc(C)c(N2CCN(C(=S)Nc3ccc4nc(N5CCN(C)CC5)cc(C)c4c3)CC2)c1`, the inhibition entry is “inactive”.

Take `CCCn1c(C)cc(-c2csc(N)n2)c1C`: the inhibition result is “inactive”.

Turning to `Cn1cccc1CC(=O)N/N=C\c1ccccc1`, the result was inactive.

Turning to `CCOC(=O)c1ccc(NC(=O)CSCCC(=O)O)cc1`, the inhibition result was “inactive”.

Take `Fc1ccc(C2=Nc3cccc4cccc(c34)N2)cc1`: the result was inactive.

As for `CCOC(=O)c1nc(Nc2ccc(N3CCC(C)CC3)cc2)c2ccccc2n1`, the result was inactive.

On to `NCC(c1ccccc1)c1c[nH]c2ccccc12` (centres undefined), for which the inhibition entry is “inactive”.

Turning to `COc1ccc(N2CCN(CCCNC(=O)CCCn3c(=O)[nH]c4ccsc4c3=O)CC2)cc1`, the inhibition entry was “inactive”.

Regarding `CCC(=O)N(CC)C1=C(O)c2ccccc2C(=O)C1=O`, the inhibition entry was “inactive”.

Turning to `Cc1cc[n+]2cc(-c3cccc([N+](=O)[O-])c3)c(-c3cccc([N+](=O)[O-])c3)cc2c1`, the result was inactive.

For the molecule `Cc1ccc(S(=O)(=O)N(C)CC(=O)N2CCc3ccccc32)cc1`, the inhibition entry is “inactive”.

In the case of `CCN(CC)C(=O)COC(=O)c1cc(-c2ccco2)nc2ccccc12`, the result was inactive.

`Cc1cc(C(=O)NCCCN(C)C)c2ccccc2n1`: the inhibition result was “inactive”.

For `O=C(CNC(=O)c1ccc(S(=O)(=O)N2CCCC2)cc1)N/N=C/c1ccc(Cl)cc1Cl`, the result was inactive.

With `O=C(C[n+]1ccc(-c2nnc3n2CCC3)cc1)c1ccc(Cl)cc1`, the outcome was inactive.

For `Cc1nn(-c2ccc(Cl)c(Cl)c2)c(C)c1C(=O)O`, the result was inactive.

For the molecule `COc1ccccc1Nc1nc(-c2c(C)nc3ncccn23)cs1`, the inhibition result is “inactive”.

Turning to `COCCNC(=O)CN1CCC(NC(=O)Nc2ccccc2)CC1`, the inhibition entry was “inactive”.

With `O=[N+]([O-])c1ccc(-c2cn(-c3ccc(Cl)cc3)c(=S)[nH]2)cc1`, the inhibition result is “inactive”.

Take `CNC(CC(=O)c1ccc([N+](=O)[O-])cc1)C(Cl)(Cl)Cl` (centres undefined): the result was inactive.

Regarding `O=C(COc1ccccc1)Nc1ccc2c(c1)Cc1cc(NC(=O)COc3ccccc3)ccc1-2`, the inhibition result was “inactive”.

As for `Cc1csc(SCCn2c(N3CCN(c4ccccc4)CC3)nc3c2c(=O)[nH]c(=O)n3C)n1`, the inhibition entry is “inactive”.

Take `O=C(c1cnccn1)N(Cc1cccs1)C1(C(=O)NC2CCCCC2)CCCCC1`: the outcome was inactive.

Regarding `N/C(=N\N=C/c1ccc(Br)cc1)N/N=C\c1ccc(Br)cc1`, the inhibition result is “inactive”.

Consider `O=C1c2ccccc2C(=O)N1c1cccc2cccnc12`, for which the outcome was inactive.

For the molecule `COC(=O)c1[nH]c2ccccc2c1NC(=O)c1ccccc1[N+](=O)[O-]`, the outcome was inactive.

In the case of `Cc1onc(-c2ccccc2)c1C(=O)Nc1nnc(COc2ccc(Cl)cc2)s1`, the inhibition entry was “inactive”.

Values taken from PubChem BioAssay AID1322 (NMMLSC, 2008).
